Test results taken from the NIST ThermoML archive (doi:10.1016/j.jct.2007.05.015).

Assay: xn = mol fraction of the nth substance listed
Settings: 298.15 K, 101 kPa, Liquid

O=C1CCCN1 [2-pyrrolidinone] + O
Settings | mass density [kg/m3] | speed of sound [m/s]
x1 = 0.03793 | 1015.26 | 1577.4
x1 = 0.05001 | 1020.61 | 1597.6
x1 = 0.07966 | 1032.48 | 1632.1
x1 = 0.1093 | 1042.93 | 1670
x1 = 0.122 | 1046.78 | 1684.5
x1 = 0.1582 | 1056.77 | 1708
x1 = 0.1789 | 1062.24 | 1716.5
x1 = 0.2155 | 1070.34 | 1726.6
x1 = 0.2352 | 1074.91 | 1732.1
x1 = 0.2473 | 1077.08 | 1735.2
x1 = 0.2794 | 1081.92 | 1737.3
x1 = 0.3497 | 1088.62 | 1735.5
x1 = 0.4199 | 1093.46 | 1727.8
x1 = 0.5013 | 1097.41 | 1715.8
x1 = 0.549 | 1099.18 | 1708.8
x1 = 0.6133 | 1101.6 | 1698.7
x1 = 0.6705 | 1102.82 | 1683.4
x1 = 0.7037 | 1103.16 | 1678.5
x1 = 0.8117 | 1105.88 | 1658
x1 = 0.8353 | 1106.12 | 1654.6
x1 = 0.8593 | 1106.38 | 1651.3
x1 = 0.8813 | 1106.59 | 1647.9
x1 = 0.9413 | 1107.13 | 1640.7
x1 = 1 | 1107.52 | 1633.7

CC(=O)N(C)C [N,N-dimethylethanamide] + O
Settings | mass density [kg/m3] | speed of sound [m/s]
x1 = 0.00083 | 996.94 | 1499.8
x1 = 0.00163 | 996.87 | 1502.4
x1 = 0.03959 | 995.84 | 1616.2
x1 = 0.055 | 996.37 | 1645.5
x1 = 0.06456 | 996.62 | 1663.2
x1 = 0.08126 | 997.29 | 1678.6
x1 = 0.1 | 997.94 | 1700.3
x1 = 0.1208 | 998.5 | 1717.9
x1 = 0.1447 | 998.68 | 1730.7
x1 = 0.1714 | 998.55 | 1737.9
x1 = 0.2012 | 997.61 | 1749.4
x1 = 0.2381 | 995.72 | 1734.5
x1 = 0.2761 | 992.03 | 1719.7
x1 = 0.3245 | 988.32 | 1703.6
x1 = 0.3783 | 985.12 | 1682.1
x1 = 0.4137 | 982.41 | 1669
x1 = 0.452 | 979.26 | 1653.4
x1 = 0.4832 | 975.57 | 1638.2
x1 = 0.5372 | 969.73 | 1605.4
x1 = 0.583 | 965.29 | 1586.8
x1 = 0.6496 | 959.34 | 1559.2
x1 = 0.7074 | 953.42 | 1534.2
x1 = 0.7633 | 949.72 | 1522
x1 = 0.8342 | 946.12 | 1489
x1 = 0.9053 | 940.96 | 1482.2
x1 = 1 | 936.34 | 1455.9

CNC=O [N-methylformamide] + O
Settings | mass density [kg/m3] | speed of sound [m/s]
x1 = 0.01572 | 999.1 | 1518.7
x1 = 0.03276 | 1001.38 | 1538.8
x1 = 0.05095 | 1003.6 | 1557.2
x1 = 0.07104 | 1005.91 | 1574.1
x1 = 0.09226 | 1007.87 | 1582.7
x1 = 0.1156 | 1010.1 | 1591.3
x1 = 0.141 | 1011.91 | 1601.6
x1 = 0.1714 | 1013.58 | 1606.1
x1 = 0.2005 | 1014.89 | 1606.2
x1 = 0.2339 | 1015.73 | 1603.4
x1 = 0.2714 | 1016.31 | 1598.8
x1 = 0.3047 | 1016.34 | 1594
x1 = 0.3185 | 1016.28 | 1589.3
x1 = 0.3367 | 1016.3 | 1583.7
x1 = 0.3615 | 1015.86 | 1573
x1 = 0.3853 | 1015.45 | 1560.7
x1 = 0.4166 | 1014.47 | 1551.9
x1 = 0.4456 | 1013.64 | 1542.9
x1 = 0.4785 | 1012.83 | 1534.2
x1 = 0.5109 | 1011.92 | 1526.4
x1 = 0.5497 | 1010.88 | 1514.7
x1 = 0.5805 | 1010.04 | 1507.5
x1 = 0.5913 | 1009.49 | 1502.6
x1 = 0.6164 | 1008.9 | 1497.2
x1 = 0.6335 | 1008.22 | 1493.1
x1 = 0.681 | 1006.72 | 1480.6
x1 = 0.7323 | 1005.35 | 1469
x1 = 0.779 | 1004.51 | 1462.9
x1 = 0.8279 | 1003.34 | 1454.5
x1 = 0.8535 | 1002.54 | 1449.5
x1 = 0.8763 | 1001.72 | 1446.5
x1 = 0.917 | 1001.03 | 1441.1
x1 = 0.9285 | 1000.72 | 1440.2
x1 = 1 | 999.06 | 1431.9

CN1CCCC1=O [N-methylpyrrolidone] + O
Settings | mass density [kg/m3] | speed of sound [m/s]
x1 = 0.02533 | 1004.51 | 1573.6
x1 = 0.06006 | 1014.28 | 1646.8
x1 = 0.08026 | 1020.63 | 1684.4
x1 = 0.1008 | 1025.71 | 1724.7
x1 = 0.1191 | 1030.16 | 1731.2
x1 = 0.1399 | 1034.69 | 1745.2
x1 = 0.1596 | 1038.09 | 1747.7
x1 = 0.1779 | 1040.14 | 1749.2
x1 = 0.1964 | 1041.52 | 1751.7
x1 = 0.2203 | 1042.98 | 1750.7
x1 = 0.2399 | 1044.35 | 1750.1
x1 = 0.2602 | 1045.7 | 1745.3
x1 = 0.278 | 1046 | 1741.8
x1 = 0.2987 | 1046.27 | 1735.4
x1 = 0.3296 | 1046.23 | 1725.6
x1 = 0.3794 | 1045.76 | 1707.8
x1 = 0.4497 | 1044.33 | 1687.1
x1 = 0.4986 | 1043.54 | 1670
x1 = 0.5494 | 1041.35 | 1651.2
x1 = 0.5978 | 1039.92 | 1633.6
x1 = 0.649 | 1037.65 | 1621
x1 = 0.6998 | 1035.76 | 1610.2
x1 = 0.7893 | 1032.74 | 1587.7
x1 = 0.8199 | 1031.82 | 1574.4
x1 = 0.8333 | 1031.01 | 1568.3
x1 = 0.8826 | 1030.54 | 1563.8
x1 = 0.8976 | 1029.93 | 1558.4
x1 = 0.9553 | 1028.92 | 1552.2
x1 = 1 | 1028.23 | 1531.5

CN(C)C=O [dimethylformamide] + O
Settings | mass density [kg/m3] | speed of sound [m/s]
x1 = 0.01233 | 996.44 | 1526.3
x1 = 0.0266 | 996.21 | 1555.7
x1 = 0.0276 | 996.23 | 1554.2
x1 = 0.04154 | 996.18 | 1582.3
x1 = 0.05803 | 996.38 | 1607.4
x1 = 0.07593 | 996.62 | 1628.8
x1 = 0.09542 | 996.84 | 1647.5
x1 = 0.1173 | 997.02 | 1659
x1 = 0.1412 | 996.93 | 1675.5
x1 = 0.1677 | 996.02 | 1684.6
x1 = 0.1975 | 995.1 | 1688.2
x1 = 0.23 | 993.87 | 1687.8
x1 = 0.2866 | 990.18 | 1676.6
x1 = 0.3139 | 989.17 | 1669.3
x1 = 0.3771 | 984.28 | 1647.7
x1 = 0.4247 | 981.19 | 1629.1
x1 = 0.4494 | 979.47 | 1620.3
x1 = 0.4755 | 977.79 | 1610.1
x1 = 0.4955 | 976.4 | 1599.5
x1 = 0.5203 | 974.98 | 1592
x1 = 0.5336 | 974.17 | 1585.7
x1 = 0.555 | 972.69 | 1572.1
x1 = 0.5806 | 970.92 | 1565.8
x1 = 0.6169 | 968.9 | 1559
x1 = 0.637 | 967.32 | 1550.5
x1 = 0.6551 | 965.83 | 1545.2
x1 = 0.6931 | 963.35 | 1538.2
x1 = 0.7172 | 961.78 | 1527.7
x1 = 0.7373 | 960.6 | 1519.7
x1 = 0.753 | 959.56 | 1514.8
x1 = 0.7666 | 958.73 | 1512.3
x1 = 0.8037 | 956.19 | 1504.3
x1 = 0.8126 | 955.54 | 1501.2
x1 = 0.8469 | 953.57 | 1493
x1 = 0.8694 | 952.12 | 1491.4
x1 = 0.8911 | 950.68 | 1488.4
x1 = 0.925 | 948.01 | 1476.6
x1 = 0.9661 | 946.28 | 1469.1
x1 = 1 | 943.94 | 1457.5
